The text below walks through data of the supplement of paper PMC8967900.

Each structure is given as a SMILES string.
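Further: ALL cell lines in 384-well plates, five doses spanning 10,000-fold, each plate scaled between vehicle and 100 µmol/L benzalkonium chloride controls, sDSS an adapted area-under-curve metric.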

In one experiment the test system is MHH-CALL-3. Nature of the experiment: selective drug sensitivity score (sDSS, relative to normal bone marrow) (sDSS (score)); higher = more potent and effective on the cell line relative to normal bone marrow cells. The note with it: 72 h.
Take `Nc1nc2cc(-c3ccc4ncc(C(=O)N5CCOCC5)n4c3)ccc2o1` [Serabelisib] (top concentration 10000 nM): the “selective drug sensitivity score” value was -1.54.
Regarding `COc1cccc(-c2ccc(NC(=O)C3=C(C(=O)O)CCC3)c(F)c2)c1` [Vidofludimus] (top concentration 10000 nM), the “selective drug sensitivity score” value came to 0.7.
As for `Cc1cccc(-c2nn3c(c2-c2ccnc4ccc(C(N)=O)cc24)CCC3)n1` [Galunisertib] (top concentration 1000 nM), the “selective drug sensitivity score” value came out at 0.
Regarding `COc1cc2c(N3CCN(C(=O)Nc4ccc(OC(C)C)cc4)CC3)ncnc2cc1OCCCN1CCCCC1` [Tandutinib] (top concentration 1000 nM), the “selective drug sensitivity score” value came out at 0.
On to `Cc1c(F)cc(C(=O)NC2CC2)cc1-c1ccc(C(=O)NCC(C)(C)C)cn1` [Losmapimod] (top concentration 10000 nM), for which the “selective drug sensitivity score” value was -0.18.
On the same count and under the same terms, in the case of `Nc1nc(N)c2nc(-c3cccc(O)c3)c(-c3cccc(O)c3)nc2n1` [TG100-115] (top concentration 10000 nM) it was -0.4; in that of `C[C@]12CC[C@@H]3c4ccc(O)cc4C[C@@H](CCCCCCCCC[S+]([O-])CCCC(F)(F)C(F)(F)F)[C@H]3[C@@H]1CC[C@@H]2O` (stereo not given in full) [Fulvestrant] (top concentration 1000 nM), 0; in that of `O=C(Nc1cccnc1)N1CCC(Cc2cccc(Oc3ccc(C(F)(F)F)cn3)c2)CC1` [PF-3845] (top concentration 10000 nM), -1.34.
With `COc1cc2c(cc1OCCCN1CCCC1)N=C(N)C21CCC1` [A-366] (top concentration 25000 nM), the “selective drug sensitivity score” value was -1.84.
Same read-out and setting: under `Oc1ncnc2[nH]ncc12` [Allopurinol] (top concentration 10000 nM) stands -0.64; under `CC(C)n1cnc2c(NCCc3ccc(O)cc3)nc(-c3csc4ccccc34)nc21` [StemRegenin_1] (top concentration 10000 nM), -1.8; under `C#Cc1cccc(Nc2ncnc3cc4c(cc23)OCCOCCOCCO4)c1` [Icotinib] (top concentration 10000 nM), 1.3.
As for `CN[C@@H](C)C(=O)N[C@H]1CN(C(=O)CC(C)C)CC[C@H]2CC[C@@H](C(=O)NC(c3ccccc3)c3ccccc3)N2C1=O` [AT-406] (top concentration 10000 nM), the “selective drug sensitivity score” value was -1.26.
Still for that read-out and setting: under `CC(C)(O)CC(=O)NCCn1ccc2ncnc(Nc3ccc(Oc4cccc(C(F)(F)F)c4)c(Cl)c3)c21` [TAK-285] (top concentration 2500 nM) stands 0; under `COc1cc(C)[nH]c(=O)c1CNC(=O)c1c(C)n([C@H](C)C2CCOCC2)c2ccccc12` [CPI-360] (top concentration 10000 nM), 0; under `Cc1cc2c(C(=O)NC[C@H](C)c3ccccc3)c(O)c(O)cc2c(O)c1-c1c(C)cc2c(C(=O)NC[C@H](C)c3ccccc3)c(O)c(O)cc2c1O` [Sabutoclax] (top concentration 25000 nM), -8.12.
As to `CC(C)(C)C[C@@H]1N[C@@H](C(=O)N[C@H]2CC[C@H](O)CC2)[C@H](c2cccc(Cl)c2F)[C@]12C(=O)Nc1cc(Cl)ccc12` (top concentration 10000 nM), the “selective drug sensitivity score” value turned out to be 16.9.
As to `C[C@@H]1C[C@H]2[C@@H]3CCC4=CC(=O)C=C[C@]4(C)[C@@]3(F)[C@@H](O)C[C@]2(C)[C@@]1(O)C(=O)CO` [Dexamethasone] (top concentration 10000 nM), the “selective drug sensitivity score” value was 40.3.

The next experiment relates to MHH-CALL-4. The description is as above. As to conditions: 72 h.
In the case of `Nc1nc2cc(-c3ccc4ncc(C(=O)N5CCOCC5)n4c3)ccc2o1` [Serabelisib] (top concentration 10000 nM), the “selective drug sensitivity score” value stood at 0.46.
As to `COc1cccc(-c2ccc(NC(=O)C3=C(C(=O)O)CCC3)c(F)c2)c1` [Vidofludimus] (top concentration 10000 nM), the “selective drug sensitivity score” value was found to be 2.8.
`Cc1cccc(-c2nn3c(c2-c2ccnc4ccc(C(N)=O)cc24)CCC3)n1` [Galunisertib] (top concentration 1000 nM): the “selective drug sensitivity score” value came to 0.
Consider `COc1cc2c(N3CCN(C(=O)Nc4ccc(OC(C)C)cc4)CC3)ncnc2cc1OCCCN1CCCCC1` [Tandutinib] (top concentration 1000 nM), for which the “selective drug sensitivity score” value was 0.
As to `Cc1c(F)cc(C(=O)NC2CC2)cc1-c1ccc(C(=O)NCC(C)(C)C)cn1` [Losmapimod] (top concentration 10000 nM), the “selective drug sensitivity score” value is -0.18.
On the same count and under the same terms, under `Nc1nc(N)c2nc(-c3cccc(O)c3)c(-c3cccc(O)c3)nc2n1` [TG100-115] (top concentration 10000 nM) stands -0.4; under `C[C@]12CC[C@@H]3c4ccc(O)cc4C[C@@H](CCCCCCCCC[S+]([O-])CCCC(F)(F)C(F)(F)F)[C@H]3[C@@H]1CC[C@@H]2O` (stereo not given in full) [Fulvestrant] (top concentration 1000 nM), 0.
In the case of `O=C(Nc1cccnc1)N1CCC(Cc2cccc(Oc3ccc(C(F)(F)F)cn3)c2)CC1` [PF-3845] (top concentration 10000 nM), the “selective drug sensitivity score” value is 0.96.
As to `COc1cc2c(cc1OCCCN1CCCC1)N=C(N)C21CCC1` [A-366] (top concentration 25000 nM), the “selective drug sensitivity score” value is -0.34.
As to `Oc1ncnc2[nH]ncc12` [Allopurinol] (top concentration 10000 nM), the “selective drug sensitivity score” value is -0.64.
Still for that read-out and setting: in the case of `CC(C)n1cnc2c(NCCc3ccc(O)cc3)nc(-c3csc4ccccc34)nc21` [StemRegenin_1] (top concentration 10000 nM) it was -1.8; in that of `C#Cc1cccc(Nc2ncnc3cc4c(cc23)OCCOCCOCCO4)c1` [Icotinib] (top concentration 10000 nM), 0; in that of `CN[C@@H](C)C(=O)N[C@H]1CN(C(=O)CC(C)C)CC[C@H]2CC[C@@H](C(=O)NC(c3ccccc3)c3ccccc3)N2C1=O` [AT-406] (top concentration 10000 nM), -1.26.
Still for that read-out and setting: in the case of `CC(C)(O)CC(=O)NCCn1ccc2ncnc(Nc3ccc(Oc4cccc(C(F)(F)F)c4)c(Cl)c3)c21` [TAK-285] (top concentration 2500 nM) it was 0.
The same measure, in the same setting: in the case of `COc1cc(C)[nH]c(=O)c1CNC(=O)c1c(C)n([C@H](C)C2CCOCC2)c2ccccc12` [CPI-360] (top concentration 10000 nM) it was 0; in that of `Cc1cc2c(C(=O)NC[C@H](C)c3ccccc3)c(O)c(O)cc2c(O)c1-c1c(C)cc2c(C(=O)NC[C@H](C)c3ccccc3)c(O)c(O)cc2c1O` [Sabutoclax] (top concentration 25000 nM), -7.22; in that of `CC(C)(C)C[C@@H]1N[C@@H](C(=O)N[C@H]2CC[C@H](O)CC2)[C@H](c2cccc(Cl)c2F)[C@]12C(=O)Nc1cc(Cl)ccc12` (top concentration 10000 nM), 8.96.
As for `C[C@@H]1C[C@H]2[C@@H]3CCC4=CC(=O)C=C[C@]4(C)[C@@]3(F)[C@@H](O)C[C@]2(C)[C@@]1(O)C(=O)CO` [Dexamethasone] (top concentration 10000 nM), the “selective drug sensitivity score” value worked out at 36.7.

The subject of a further experiment is MN-60. Described as above. As to conditions: 72 h.
In the case of `Nc1nc2cc(-c3ccc4ncc(C(=O)N5CCOCC5)n4c3)ccc2o1` [Serabelisib] (top concentration 10000 nM), the “selective drug sensitivity score” value is -1.54.
With `COc1cccc(-c2ccc(NC(=O)C3=C(C(=O)O)CCC3)c(F)c2)c1` [Vidofludimus] (top concentration 10000 nM), the “selective drug sensitivity score” value worked out at 12.3.
In the case of `Cc1cccc(-c2nn3c(c2-c2ccnc4ccc(C(N)=O)cc24)CCC3)n1` [Galunisertib] (top concentration 1000 nM), the “selective drug sensitivity score” value is 0.
As for `COc1cc2c(N3CCN(C(=O)Nc4ccc(OC(C)C)cc4)CC3)ncnc2cc1OCCCN1CCCCC1` [Tandutinib] (top concentration 1000 nM), the “selective drug sensitivity score” value was found to be 0.
In the case of `Cc1c(F)cc(C(=O)NC2CC2)cc1-c1ccc(C(=O)NCC(C)(C)C)cn1` [Losmapimod] (top concentration 10000 nM), the “selective drug sensitivity score” value was -0.18.
In the case of `Nc1nc(N)c2nc(-c3cccc(O)c3)c(-c3cccc(O)c3)nc2n1` [TG100-115] (top concentration 10000 nM), the “selective drug sensitivity score” value was -0.4.
Consider `C[C@]12CC[C@@H]3c4ccc(O)cc4C[C@@H](CCCCCCCCC[S+]([O-])CCCC(F)(F)C(F)(F)F)[C@H]3[C@@H]1CC[C@@H]2O` (stereo not given in full) [Fulvestrant] (top concentration 1000 nM), for which the “selective drug sensitivity score” value was 0.
On the same count and under the same terms, in the case of `O=C(Nc1cccnc1)N1CCC(Cc2cccc(Oc3ccc(C(F)(F)F)cn3)c2)CC1` [PF-3845] (top concentration 10000 nM) it was 3.06; in that of `COc1cc2c(cc1OCCCN1CCCC1)N=C(N)C21CCC1` [A-366] (top concentration 25000 nM), -1.84.
